Data from patent US4466952A, “Compositions and process for the treatment of cancer” (Indiana University Foundation, priority 1983, dated 1984).

Key:
estrogen receptors = details: as described for the prior art; cited from earlier work
[1] = as described for the prior art; cited from earlier work
[2] = system: infantile female white swiss mouse; experiment: Uterotropic Assay compared to estrone as standard; type: in vivo
[3] = molecular target: T1, Calf uterine cytosolic estrogen receptor (Bos taurus, UniProt P49884); experiment: Estrogen Receptor assay, competition with 6,7-3H2-estradiol; type: binding
T1 construct: Calf uterine cytosolic estrogen receptor; from tissue; host or cells: calf uterus, cytosol
T1 sequence (P49884 1-596): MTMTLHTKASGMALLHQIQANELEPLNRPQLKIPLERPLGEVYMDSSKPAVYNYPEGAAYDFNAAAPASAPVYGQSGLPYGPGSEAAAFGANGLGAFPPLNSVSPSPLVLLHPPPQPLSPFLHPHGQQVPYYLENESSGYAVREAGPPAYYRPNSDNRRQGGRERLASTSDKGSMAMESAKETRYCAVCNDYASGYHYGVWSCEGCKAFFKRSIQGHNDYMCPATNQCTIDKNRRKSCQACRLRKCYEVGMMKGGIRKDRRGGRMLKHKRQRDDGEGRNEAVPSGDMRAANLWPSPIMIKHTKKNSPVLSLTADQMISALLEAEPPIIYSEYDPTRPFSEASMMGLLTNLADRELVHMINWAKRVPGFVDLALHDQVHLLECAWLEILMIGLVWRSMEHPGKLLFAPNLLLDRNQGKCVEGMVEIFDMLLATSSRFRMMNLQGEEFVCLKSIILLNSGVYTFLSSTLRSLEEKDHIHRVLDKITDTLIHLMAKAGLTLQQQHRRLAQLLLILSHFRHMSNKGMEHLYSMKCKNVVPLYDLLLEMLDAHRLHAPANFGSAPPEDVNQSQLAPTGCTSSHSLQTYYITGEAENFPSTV

Substance	estrophilic activity (estrogen receptors)	uterotopic activity [1]	uterotropic activity relative to estrone ([2]; 3×3 assay, 5-6 animals per dose, estrone as standard)	response compared to estrone (uterotropic) ([2]; 4×4 assay, 9-10 animals per dose, estrone as standard) [%]	uterotopic response of estrone ([2]; summary statement, relative to estrone)	estrophilic activity relative to estradiol-17β 3-carboranylmethyl ether ([3]; compared with value reported in Steroids 37, 223 (1981))	50% inhibition to binding ([3]; competition with 6,7-3H2-estradiol) [Mole equivalent]
estradiol-17β 3-carboranylmethyl ether	very low	very low					
(17β)-17-(1,2-dicarbadodecaboran(12)-1-yl)estra-1,3,5(10)-triene-3,17-diol 17-acetate [III]			about 80%	63	at least 63%	about two	1
